Source: patent US11124517B2 (CRYSTAL PHARMACEUTICAL (SUZHOU) CO., LTD., priority 2017, dated 2021)
Values after ≈ are worked out from the molar mass of the structure shown.

Key:
[1] = Kinetic solubility in biorelevant media and water (HPLC); conditions: thermodynamic from solid
Procedure: (§1) Simulated gastrointestinal fluids such as SGF (Simulated gastric fluids), FaSSIF (Fasted state simulated intestinal fluids) and FeSSIF (Fed state simulated intestinal fluids) are biorelevant media. […] 20 mg of Form G and 20 mg of crystalline form of the prior art were suspended into 1.5 mL of SGF, 1.5 mL of FaSSIF, 1.5 mL of FaSSIF and 1.5 mL of water to get saturated solutions. After equilibrated for 1 h, 4 h and 24 h, concentrations of the saturated solutions were measured by HPLC (mg/mL).

[2] = Bulk and tapped density of powder; format: physicochemical; conditions: for Bulk density (ρ0): about 500 mg in 5-mL measuring cylinder; for Tapped density (ρf): tapped 1250 times
Procedure: The density of powder is mainly referred to the bulk density and tapped density. The bulk density refers to the density obtained by dividing the mass of the powder by the volume of the powder in the container. The tapped density is obtained by dividing the mass of the powder by the volume of the powder which is tapped to the tightest state.
About 500 mg of Form G and the crystalline form of the prior art are added into a 5-mL measuring cylinder to measure the bulk volumes. The bulk density was calculated according to the equation: bulk density ρ0=powder mass/bulk volume. The samples were tapped 1250 times to make them in the tightest state and the tapped volumes were recorded. The tapped density was calculated according to tapped density ρf=powder mass/tapped volume.

[3] = Adhesiveness: material sticking to the punch on tableting; format: physicochemical; conditions: 30 mg, φ8 mm round tooling, 10 KN, 30 s
Procedure: 30 mg of Form G and the crystalline form of the prior art were weighed and added into the dies of φ8 mm round tooling, tableted at 10 KN and held for 30 s. The amount of material sticking to the punch was weighed. The compression was repeated twice and the cumulative amount, maximum amount and average amount of material sticking to the punch during the compression process were recorded.

[4] = Hygroscopicity by dynamic vapor sorption (DVS); format: physicochemical
Procedure: Dynamic vapor sorption (DVS) was applied to test hygroscopicity of Form G and the crystalline form of the prior art with about 10 mg of samples. The weight gains at each relative humidity were recorded in a cycle of 0-95%-0 RH.

[5] = Flowability by compressibility index (Carr index); format: physicochemical; conditions: graded from compressibility index
Procedure: Compressibility is usually used to evaluate the flowability of powder and granular intermediates during the formulation process, and is known as compressibility index (c). Compressibility index test method is as follows: a certain amount of powder was added into a measuring cylinder and bulk volume was recorded. Then the powder was tapped to make it in the tightest state, and the tapped volume was recorded. The bulk density (ρ0), tapped density (ρf) were calculated, and compressibility index was calculated according to c=(ρf−ρ0)/pf. Compressibility index, also known as Carr index, is an important index for evaluating flowability.
The test method of Compressibility index is as follows: Compressibility index was calculated according to bulk density ρ0 and tapped density ρf of Form G and the crystalline form of the prior art with c=(ρf−ρ0)/ρf*100%.

physchem = conditions: thermodynamic from solid
Procedure: as §1

[6] = Stability of Form G on storage, crystalline form checked by XRPD; format: physicochemical; conditions: for Crystalline form after storage: XRPD
From the text: Crystalline forms were checked by XRPD.

[7] = FaSSIF (fasted state simulated intestinal fluid), fassif
[8] = FeSSIF (fed state simulated intestinal fluid), fessif
[9] = SGF (simulated gastric fluid), simulated gastric fluid

For CCS(=O)(=O)N1CC(CC#N)(n2cc(-c3ncnc4[nH]ccc34)cn2)C1 [Crystalline form of the prior art, Baricitinib, reference compound], the solubility kinetic at 1 h [1, 7] was 16 µg/mL (≈ 43.1 µM), the solubility kinetic at 4 h [1, 7] was 18 µg/mL (≈ 48.5 µM) and the solubility kinetic at 24 h [1, 7] was 18 µg/mL (≈ 48.5 µM). It also gave a solubility kinetic at 1 h [1, 8] of 35 µg/mL (≈ 94.2 µM), a solubility kinetic at 4 h [1, 8] of 31 µg/mL (≈ 83.5 µM) and a solubility kinetic at 24 h [1, 8] of 33 µg/mL (≈ 88.8 µM). The solubility kinetic at 1 h [1, 9] was 1900 µg/mL (≈ 5120 µM), the solubility kinetic at 4 h [1, 9] was 1900 µg/mL (≈ 5120 µM) and the solubility kinetic at 24 h [1, 9] was 1900 µg/mL (≈ 5120 µM). For the same molecule, the solubility kinetic at 1 h ([1]; water) was 8.9 µg/mL (≈ 24 µM), the solubility kinetic at 4 h ([1]; water) was 12 µg/mL (≈ 32.3 µM) and the solubility kinetic at 24 h ([1]; water) was 13 µg/mL (≈ 35 µM). For the same molecule, the “Bulk density (ρ0)” value [2] was 0.133 g/mL, the “Tapped density (ρf)” value [2] was 0.204 g/mL and the “Average amount of material sticking to the punch” value [3] was 0.21 mg. For the same molecule, the “Cumulative amount of material sticking to the punch” value [3] was 0.41 mg, the “Maximum amount of material sticking to the punch” value [3] was 0.43 mg and the Weight gain % ([4]; Relative humidity 0) was 0%. For the same molecule, the Weight gain % ([4]; Relative humidity 10%) was 0.07%, the Weight gain % ([4]; Relative humidity 20%) was 0.11% and the Weight gain % ([4]; Relative humidity 30%) was 0.15%. The Weight gain % ([4]; Relative humidity 40%) was 0.19%, the Weight gain % ([4]; Relative humidity 50%) was 0.24% and the Weight gain % ([4]; Relative humidity 60%) was 0.30%. It also gave a Weight gain % ([4]; Relative humidity 70%) of 0.36%, a Weight gain % ([4]; Relative humidity 80%) of 0.44% and a Weight gain % ([4]; Relative humidity 90%) of 0.59%. The Weight gain % ([4]; Relative humidity 95%) was 0.78%, the Flowability [5] was “Very poor (32-37)” and the Flowability ([5]; listed as the prior art form) was “very poor”.

In the case of CCS(=O)(=O)N1CC(CC#N)(n2cc(-c3ncnc4[nH]ccc34)cn2)C1 [Form G, Baricitinib], the “Bulk density (ρ0)” value [2] is reported as 0.538 g/mL, the “Tapped density (ρf)” value [2] is reported as 0.614 g/mL and the “Average amount of material sticking to the punch” value [3] is reported as 0.06 mg. For the same molecule, the “Cumulative amount of material sticking to the punch” value [3] was 0.12 mg, the “Maximum amount of material sticking to the punch” value [3] was 0.12 mg and the Weight gain % ([4]; Relative humidity 0) was 0%. For the same molecule, the Weight gain % ([4]; Relative humidity 10%) was 0.01%, the Weight gain % ([4]; Relative humidity 20%) was 0.03% and the Weight gain % ([4]; Relative humidity 30%) was 0.04%. It also gave a Weight gain % ([4]; Relative humidity 40%) of 0.06%, a Weight gain % ([4]; Relative humidity 50%) of 0.07% and a Weight gain % ([4]; Relative humidity 60%) of 0.10%. The Weight gain % ([4]; Relative humidity 70%) was 0.15%, the Weight gain % ([4]; Relative humidity 80%) was 0.21% and the Weight gain % ([4]; Relative humidity 90%) was 0.27%. For the same molecule, the Weight gain % ([4]; Relative humidity 95%) was 0.34%, the “Crystalline form change before and after DVS” value ([4]; XRPD overlay, cycle 0-95%-0 RH) was “no crystalline form change” and the solubility kinetic at 1 h (physchem; fassif) was 81 µg/mL (≈ 218 µM). For the same molecule, the solubility kinetic at 4 h (physchem; fassif) was 100 µg/mL (≈ 269 µM), the solubility kinetic at 24 h (physchem; fassif) was 140 µg/mL (≈ 377 µM) and the solubility kinetic at 1 h (physchem; fessif) was 130 µg/mL (≈ 350 µM). It also gave a solubility kinetic at 4 h (physchem; fessif) of 170 µg/mL (≈ 458 µM), a solubility kinetic at 24 h (physchem; fessif) of 220 µg/mL (≈ 592 µM) and a solubility kinetic at 1 h (physchem; simulated gastric fluid) of 2600 µg/mL (≈ 7000 µM). For the same molecule, the solubility kinetic at 4 h (physchem; simulated gastric fluid) was 2700 µg/mL (≈ 7270 µM), the solubility kinetic at 24 h (physchem; simulated gastric fluid) was 2800 µg/mL (≈ 7540 µM) and the solubility kinetic at 1 h (physchem; water) was 52 µg/mL (≈ 140 µM). The solubility kinetic at 4 h (physchem; water) was 66 µg/mL (≈ 178 µM), the solubility kinetic at 24 h (physchem; water) was 96 µg/mL (≈ 258 µM) and the “Time for which the form is stable” value ([6]; 25° C./60% RH (long term)) was “at least 6 months”. For the same molecule, the “Crystalline form after storage” value ([6]; 25° C./60% RH, 6 months) was “Form G”, the “Time for which the form is stable” value ([6]; 40° C./75% RH (accelerated)) was “at least 6 months” and the “Crystalline form after storage” value ([6]; 40° C./75% RH, 6 months) was “Form G”. The “Time for which the form is stable” value ([6]; 60° C./75% RH) was “at least 1 week”, the “Crystalline form after storage” value ([6]; 60° C./75% RH, 1 week) was “Form G” and the “Time for which the form is stable” value ([6]; 80° C.) was “at least 1 week”. For the same molecule, the “Crystalline form after storage” value ([6]; 80° C., 1 week) was “Form G”.
